Measurements taken from US8586579B2, “Anellated pyridine compounds” (Hoffmann-La Roche Inc., priority 2010, dated 2013).
pKi: −log10 of the molar value. Read-outs that look alike come from different tables or passages of the source.

Experiments:
human 5-HT2A receptor = human 5-HT2A receptor (Homo sapiens (Human), UniProt P28223); assay: Radioligand binding assay, [3H]-ketanserin, human 5-HT2A receptor
How it was run: (§1)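 Membranes from transiently transfected HEK293 EBNA cells were incubated 1 h at RT with ten compound concentrations (10 μM-0.1 nM) and radioligand: 0.5 nM [3H]-spiperone for D3 (Tris/NaCl/Mg/Ca buffer, pH 7.4) or 1.1 nM [3H]-ketanserin for 5-HT2A (Tris/MgCl2/EGTA, pH 7.4).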

human D3 receptor = human D3 receptor (Homo sapiens (Human), UniProt P35462); assay: Radioligand binding assay, [3H]-spiperone, human D3 receptor; details: membranes of HEK293 EBNA cells expressing human D3; 0.5 nM [3H]-spiperone
Sequence of human D3 receptor (P35462 whole entry): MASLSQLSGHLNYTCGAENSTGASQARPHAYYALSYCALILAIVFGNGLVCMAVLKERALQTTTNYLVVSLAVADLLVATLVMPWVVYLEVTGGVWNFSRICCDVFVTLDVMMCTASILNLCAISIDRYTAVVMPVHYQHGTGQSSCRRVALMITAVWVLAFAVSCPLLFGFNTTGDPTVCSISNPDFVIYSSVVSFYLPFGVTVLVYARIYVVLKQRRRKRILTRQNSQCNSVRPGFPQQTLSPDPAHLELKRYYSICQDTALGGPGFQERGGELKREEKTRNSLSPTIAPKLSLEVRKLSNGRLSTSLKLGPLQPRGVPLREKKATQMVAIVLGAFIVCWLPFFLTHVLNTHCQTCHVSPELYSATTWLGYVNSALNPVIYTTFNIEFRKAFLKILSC
How it was run: as §1

human D2 receptor = human D2 receptor (Homo sapiens (Human), UniProt P14416); assay: Radioligand binding assay, [3H]-spiperone, human D2 receptor; details: membranes of HEK293 EBNA cells expressing human D2; 0.7 nM [3H]-spiperone
Sequence of human D2 receptor (P14416 whole entry): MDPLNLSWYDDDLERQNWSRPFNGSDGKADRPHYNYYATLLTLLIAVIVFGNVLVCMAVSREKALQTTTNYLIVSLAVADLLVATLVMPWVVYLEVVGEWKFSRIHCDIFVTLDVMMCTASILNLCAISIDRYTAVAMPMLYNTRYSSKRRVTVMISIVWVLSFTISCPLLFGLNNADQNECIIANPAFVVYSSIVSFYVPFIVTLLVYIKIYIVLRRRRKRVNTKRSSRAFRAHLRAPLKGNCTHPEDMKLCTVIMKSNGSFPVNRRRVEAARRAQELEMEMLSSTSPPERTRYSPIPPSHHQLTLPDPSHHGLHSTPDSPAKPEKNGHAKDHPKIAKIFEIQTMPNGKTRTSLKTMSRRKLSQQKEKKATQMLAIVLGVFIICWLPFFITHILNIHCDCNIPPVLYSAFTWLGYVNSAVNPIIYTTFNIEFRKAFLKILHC
How it was run: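 Membranes from HEK293 EBNA cells transiently expressing human D2 were incubated 1 h at RT with ~0.7 nM [3H]-spiperone and ten compound concentrations (10 μM–0.1 nM) in Tris buffer with NaCl, MgCl2, KCl, CaCl2, EDTA, pH 7.4.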

[1] = membranes of HEK293 EBNA cells expressing human 5-HT2A, 1.1 nM [3H]-ketanserin

Sequence of human 5-HT2A receptor (P28223 whole entry): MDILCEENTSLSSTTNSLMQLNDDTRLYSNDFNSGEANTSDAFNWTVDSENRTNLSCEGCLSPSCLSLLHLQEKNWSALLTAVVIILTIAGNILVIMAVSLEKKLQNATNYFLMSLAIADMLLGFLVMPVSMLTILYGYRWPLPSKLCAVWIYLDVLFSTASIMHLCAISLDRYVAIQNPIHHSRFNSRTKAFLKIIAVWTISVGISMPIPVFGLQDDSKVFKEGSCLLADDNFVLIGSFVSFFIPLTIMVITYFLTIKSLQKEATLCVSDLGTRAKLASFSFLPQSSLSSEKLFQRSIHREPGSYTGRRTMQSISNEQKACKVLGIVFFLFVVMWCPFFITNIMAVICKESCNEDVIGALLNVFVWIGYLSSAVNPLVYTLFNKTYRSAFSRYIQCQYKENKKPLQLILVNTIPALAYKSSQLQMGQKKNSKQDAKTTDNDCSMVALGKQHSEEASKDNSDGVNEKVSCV

Structure (SMILES)	pKi (human 5-HT2A receptor; [1])	melting point	pKi (human D3 receptor)	pKi (human D2 receptor)	pKi (human 5-HT2A receptor)
O=C(N[C@H]1CC[C@H](CCN2CCN(c3nccc4c3CCO4)CC2)CC1)c1ccc2c(c1)OCO2 [Example 121, Benzo[1,3]dioxole-5-carboxylic acid trans-(4-{2-[4-(2,3-dihydro-furo[3,2-c]pyridin-4-yl)-piperazin-1-yl]-ethyl}-cyclohexyl)-amide]	7.75	243.5 °C	7.66	5.47	
O=C(Cc1ccc2c(c1)OCO2)N[C@H]1CC[C@H](CCN2CCN(c3nccc4c3CCO4)CC2)CC1 [Example 122, trans-2-Benzo[1,3]dioxol-5-yl-N-(4-{2-[4-(2,3-dihydro-furo[3,2-c]pyridin-4-yl)-piperazin-1-yl]-ethyl}-cyclohexyl)-acetamide]	7.47	212 °C	7.73	5.52	
O=C(N[C@H]1CC[C@H](CCN2CCN(c3nccc4c3CCO4)CC2)CC1)C1(O)CCC1 [Example 123, 1-Hydroxy-cyclobutanecarboxylic acid trans-(4-{2-[4-(2,3-dihydro-furo[3,2-c]pyridin-4-yl)-piperazin-1-yl]-ethyl}-cyclohexyl)-amide]	8.01	177.5 °C	6.88	6.02	
O=C(N[C@H]1CC[C@H](CCN2CCN(c3nccc4c3CCO4)CC2)CC1)c1ccc(N2CCS(=O)(=O)CC2)cc1 [Example 125, trans-N-(4-{2-[4-(2,3-Dihydro-furo[3,2-c]pyridin-4-yl)-piperazin-1-yl]-ethyl}-cyclohexyl)-4-(1,1-dioxo-1λ6-thiomorpholin-4-yl)-benzamide]	7.78	261.5 °C	7.84	6.93	
O=C(N[C@H]1CC[C@H](CCN2CCN(c3nccc4c3CCO4)CC2)CC1)c1ccc(-n2cccn2)cc1 [Example 126, trans-N-(4-{2-[4-(2,3-Dihydro-furo[3,2-c]pyridin-4-yl)-piperazin-1-yl]-ethyl}-cyclohexyl)-4-pyrazol-1-yl-benzamide]	7.44	229 °C	7.35	6.32	
Cc1nc(-c2cccc(C(=O)N[C@H]3CC[C@H](CCN4CCN(c5nccc6c5CCO6)CC4)CC3)c2)no1 [Example 127, trans-N-(4-{2-[4-(2,3-Dihydro-furo[3,2-c]pyridin-4-yl)-piperazin-1-yl]-ethyl}-cyclohexyl)-3-(5-methyl-[1,2,4]oxadiazol-3-yl)-benzamide]	7.31	218 °C	7.71	5.67	
O=C(N[C@H]1CC[C@H](CCN2CCN(c3nccc4c3CCO4)CC2)CC1)c1ccc2ncccc2c1 [Example 128, Quinoline-6-carboxylic acid trans-(4-{2-[4-(2,3-dihydro-furo[3,2-c]pyridin-4-yl)-piperazin-1-yl]-ethyl}-cyclohexyl)-amide]	7.63	227 °C	7.69	6.30	
O=C(Cc1noc2ccccc12)N[C@H]1CC[C@H](CCN2CCN(c3nccc4c3CCO4)CC2)CC1 [Example 129, trans-2-Benzo[d] isoxazol-3-yl-N-(4-{2-[4-(2,3-dihydro-furo[3,2-c]pyridin-4-yl)-piperazin-1-yl]-ethyl}-cyclohexyl)-acetamide]		217.5 °C	7.83	5.88	7.56
O=C(N[C@H]1CC[C@H](CCN2CCN(c3nccc4c3CCO4)CC2)CC1)c1cnc(N2CCOCC2)cn1 [Example 130, 5-Morpholin-4-yl-pyrazine-2-carboxylic acid trans-(4-{2-[4-(2,3-dihydro-furo[3,2-c]pyridin-4-yl)-piperazin-1-yl]-ethyl}-cyclohexyl)-amide]	7.74	192.5 °C	6.92	6.30	
